According to patent US20260248799A1, “COMBINATIONS OF RETINALDEHYDE DEHYDROGENASE 1 (RALDH1) INHIBITORS AND IMMUNOSTIMULATORS AND METHODS USING SAME” (The Trustees of the University of Pennsylvania, priority 2023, published 2026):

Key:
Hepa 1-6 tumors = Hepa 1-6 tumors in mice; assay type: in vivo, mouse; details: Hepa 1-6 in C57BL6/J mice treated with anti-CD3; i.p., 20 mg/kg every day
Method: FIGS. 28A-28G: C99 inhibits murine RALDH1 and suppresses murine HCC growth. FIG. 28A: AldeRed assay was performed on Hepa1-6 (murine HCC, left graph) and SNU398 (human HCC, right graph) cells with or without different concentration of C99 (x-axis). Shown is the percentage of AldeRed-positive cells (y-axis) after 24 hours exposure to C99. Murine RALDH1 is sensitive to C99. FIG. 28B: Hepa1-6 cells were treated with different concentrations of C99 in vitro and the number of viable cells were counted at different time points. […] FIG. 28C: C57BL6/J mice were implanted subcutaneously with Hepa1-6 cells and the tumor-bearing mice. To prevent spontaneous rejection of this cell line, mice were treated with anti-CD3. Once the tumors reached around 50 mm^3 size, mice were treated with C86 or C99 (i.p., 20 mg/kg) every day. […] C99, but not C86, suppresses murine HCC growth. Two independent experiments were performed with at least three replicates per experimental group. Unpaired t test, two-tailed. FIG. 28D: Tumors in (FIG. 28C) were harvested at endpoint, single-cell suspension generated, and AldeRed assay was performed along with surface staining with immune cell markers. Shown is the percentage of AldeRed-positive cells in nonleukocytes (CD45 negative, mostly tumor cells) under the different treatment conditions. Two independent experiments were performed with at least three replicates per experimental group. Unpaired t test, two-tailed. FIG. 28E: FCS base frequency of Macrophages (F4/80^+ cells) within CD45^+ leukocytes in tumor tissues from experiment outlined in (FIGS. 28C-28D). Two independent experiments were performed with at least three replicates per experimental group. Unpaired t test, two-tailed. FIG. 28F: Hepa1-6 tumor-bearing NU/J mice were treated with chlodronate liposomes (CloLipo) and/or C86/C99. CloLipo treatment suppresses tumor growth and renders tumors insensitive to C99. Two independent experiments were performed with at least three replicates per experimental group. Unpaired t test, two-tailed. FIG. 28G: The murine fibrosarcoma (FS) cell line was implanted subcutaneously into C57BL6/J mice. Mice were treated with 25 mg/kg of C-99 or vehicle everyday starting one day after tumor cell transplantation. *, P<0.05; **, P<0.01; ***, P<0.001; ns, not significant.
Cultured Huh7, Huh1, Hepa 1-6, Hep55, and FS (as indicated in figure legends) tumor cells were detached using 0.25% trypsin (Gibco, catalog #25200056), washed once with 1×PBS, and counted before implantation. 3~6×10^6 tumor cells were implanted subcutaneously (s.c.) into shaved flanks of recipient mice. Tumor dimensions were measured using a caliper starting at the day indicated in the accompanying figure legend and every two to three days thereafter; volume was calculated by using formula Length*Width^2/2. Tumor volumes of 2,000 mm^3, tumor length of 2 cm or tumor ulceration were used as endpoints for survival analyses.
To deplete T cells, 200 μg of mouse CD3-specific antibody (clone 17A2) was administered i.p. starting three days before tumor implantation and repeated every three to four days until mouse sacrifice. To deplete macrophages, 200 μL of clodronate liposome (CloLipo) or PBS-liposome (CtrlLipo) (both Liposoma) was administered i.p. starting three days prior to tumor implantation and repeated every four days until mouse sacrifice. Macrophage depletion efficacy in spleen and within tumors was confirmed by flow cytometry using canonical macrophage marker F4/80. […]

Bradykinin B2 = target: T1, Bradykinin B2 (Homo sapiens, UniProt P30411); experiment: Safetyscreen: Bradykinin B2; assay type: binding; details: read-out: % Inh. Bradykinin B2
T1 construct: purchased Eurofins Cereps Panlabs

[1] = tested on: Glycine, Strychnine-Sensitive; experiment: Safetyscreen: Glycine, Strychnine-Sensitive; assay type: binding, rat; details: 10 μM
Histamine H1 = target: T2, Histamine H1 (Homo sapiens, UniProt P35367); experiment: Safetyscreen: Histamine H1; assay type: binding; details: read-out: % Inh. Histamine H1
T2 construct: purchased Eurofins Cereps Panlabs

[2] = IP pharmacokinetics and tissue distribution of C-86 in C57BL/6J mice; assay type: in vivo, mouse; details: for AUC(0-inf) / Cmax: male, C57BL/6J, mouse, mice, IP

T1 sequence (P30411 whole entry): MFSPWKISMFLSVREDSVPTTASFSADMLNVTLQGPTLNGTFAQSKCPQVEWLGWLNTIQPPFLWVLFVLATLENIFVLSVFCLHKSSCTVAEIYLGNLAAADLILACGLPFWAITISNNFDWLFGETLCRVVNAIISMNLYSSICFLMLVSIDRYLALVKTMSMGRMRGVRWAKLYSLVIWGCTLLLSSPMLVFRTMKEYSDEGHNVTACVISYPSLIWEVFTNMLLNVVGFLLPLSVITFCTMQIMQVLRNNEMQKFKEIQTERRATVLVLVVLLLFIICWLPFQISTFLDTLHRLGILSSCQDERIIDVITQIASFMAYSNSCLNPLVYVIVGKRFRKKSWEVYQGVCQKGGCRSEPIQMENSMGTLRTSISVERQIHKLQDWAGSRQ
T2 sequence (P35367 whole entry): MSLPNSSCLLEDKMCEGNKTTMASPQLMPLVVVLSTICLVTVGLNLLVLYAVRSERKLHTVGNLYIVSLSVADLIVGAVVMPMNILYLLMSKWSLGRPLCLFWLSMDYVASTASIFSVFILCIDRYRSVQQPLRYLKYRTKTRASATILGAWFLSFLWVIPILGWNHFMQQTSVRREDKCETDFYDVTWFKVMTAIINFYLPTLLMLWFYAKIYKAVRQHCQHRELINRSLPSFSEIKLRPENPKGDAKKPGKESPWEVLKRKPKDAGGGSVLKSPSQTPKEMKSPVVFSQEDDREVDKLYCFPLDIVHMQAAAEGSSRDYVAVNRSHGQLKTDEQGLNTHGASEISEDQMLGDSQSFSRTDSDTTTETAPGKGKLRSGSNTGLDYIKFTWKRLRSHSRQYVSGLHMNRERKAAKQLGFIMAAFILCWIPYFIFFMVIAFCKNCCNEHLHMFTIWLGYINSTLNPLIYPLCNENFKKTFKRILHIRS

SMILES: CS(=O)(=O)N1CCN(C(=O)c2cnc3ccc(F)cc3c2N2CCC(C#N)(c3ccccc3)CC2)CC1 [Compound C-86, 1-(6-fluoro-3-(4-(methylsulfonyl)piperazine-1-carbonyl)quinolin-4-yl)-4-phenylpiperidine-4-carbonitrile]
- tumor growth in vivo (Hepa 1-6 tumors): did not suppress
- inhibition at 10 µM (Bradykinin B2): 2%
- % Inh. Glycine, Strychnine-Sensitive [1]: 23%
- inhibition at 10 µM (Histamine H1): 13%
- bio-distribution in various tissues ([2]; delivered i.p.): good bio-distribution
- AUC(0-inf) ([2]; 10 mg/kg, adipose (mesenteric)): 121000 ng·h/mL
- Cmax ([2]; 10 mg/kg, adipose (mesenteric)): 45200 ng/mL
- AUC(0-inf) ([2]; 10 mg/kg, brain): 753 ng·h/mL
- Cmax ([2]; 10 mg/kg, brain): 362 ng/mL
- AUC(0-inf) ([2]; 10 mg/kg, liver): 32900 ng·h/mL
- Cmax ([2]; 10 mg/kg, liver): 27600 ng/mL
- AUC(0-inf) ([2]; 10 mg/kg, pancreas): 35000 ng·h/mL
- Cmax ([2]; 10 mg/kg, pancreas): 34400 ng/mL
- AUC(0-inf) ([2]; 10 mg/kg, plasma): 3720 ng·h/mL
- Cmax ([2]; 10 mg/kg, plasma): 2930 ng/mL
- AUC(0-inf) ([2]; 30 mg/kg, adipose (mesenteric)): 832000 ng·h/mL
- Cmax ([2]; 30 mg/kg, adipose (mesenteric)): 140000 ng/mL
- AUC(0-inf) ([2]; 30 mg/kg, brain): 4520 ng·h/mL
- Cmax ([2]; 30 mg/kg, brain): 1150 ng/mL
- AUC(0-inf) ([2]; 30 mg/kg, liver): 174000 ng·h/mL
- Cmax ([2]; 30 mg/kg, liver): 70500 ng/mL
- AUC(0-inf) ([2]; 30 mg/kg, pancreas): 276000 ng·h/mL
- Cmax ([2]; 30 mg/kg, pancreas): 149000 ng/mL
- AUC(0-inf) ([2]; 30 mg/kg, plasma): 28000 ng·h/mL
- Cmax ([2]; 30 mg/kg, plasma): 11600 ng/mL
